Experimental data: patent US6656956B2, “Benzimidazole derivatives, processes for preparing them and their use as pharmaceutical compositions” (Boehringer Ingelheim Pharma KG, priority 2001, dated 2003)
pIC50: −log10 of the molar value. Counter-ions that a name gives are not always drawn.

molecular target: T1, rh beta tryptase (Homo sapiens, UniProt Q15661); assay: tryptase inhibition in vitro test (cleavage of N-p-tosyl-Gly-Pro-Lys-para-nitroaniline, p-nitroaniline measured at 405 nm); assay type: biochemical; conditions: rh beta tryptase 0.91 U/ml, substrate 0.6 mM, Tris HCl buffer with calcium and heparin, pH 7.4, 37° C., 5 minutes incubation; read-out: Tryptase-inhibiting activity
T1 construct: purchased Promega
Description: The compounds according to the invention are characterised by their tryptase-inhibiting activity. This ability to inhibit tryptase was investigated using the test described below.
The measurement is carried out in Tris HCl buffer (100 mM), which additionally contains calcium (5 mM) and heparin ([…]), at pH 7.4. The standard used is rh beta tryptase which may be obtained commercially from Promega, for example. The substrate used is N-p-tosyl-Gly-Pro-Lys-para-nitroaniline in a concentration of 0.6 mM. The substrate is digested with tryptase to form p-nitroaniline which can be measured at 405 nm. Usually, an incubation period of 5 minutes and an incubation temperature of 37° C. are chosen. The enzyme activity used is 0.91 U/ml. The measurements are carried out in an Autoanalyser (Cobas Bio) made by Hofmann LaRoche. The potential inhibitory substances are used in concentrations of 10 μM in the screening, the inhibition of the tryptase being given in percent. The IC50 is determined at over 70% inhibition (concentration at which 50% of the enzyme activity is inhibited). After 5 minutes' pre-incubation of the potential inhibitory substances, the substrate is added to start the reaction, the formation of p-nitroaniline being taken as a measurement of the enzyme activity after 5 minutes, after testing the linearity.

T1 sequence (Q15661 31-275): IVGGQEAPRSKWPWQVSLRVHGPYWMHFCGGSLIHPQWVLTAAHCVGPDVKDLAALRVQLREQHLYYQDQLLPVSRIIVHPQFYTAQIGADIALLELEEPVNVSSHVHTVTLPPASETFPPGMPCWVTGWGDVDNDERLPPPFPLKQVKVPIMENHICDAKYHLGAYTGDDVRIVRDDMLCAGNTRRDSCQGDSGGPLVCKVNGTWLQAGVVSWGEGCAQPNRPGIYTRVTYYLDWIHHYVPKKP

Row | Compound | pIC50
1 | Cn1c(CCc2ccc(C(=N)N)cc2)nc2cc(N(Cc3cccc4ccccc34)C(=O)NC3CCC(Nc4ccccn4)CC3)ccc21 (stereo not drawn) [Example 76, N-{2-[2-(4-Amidinophenyl)-ethyl]-1-methyl-benzimidazol-5-yl}-N-[naphth-1-ylmethyl]-N′-[4-(2-pyridyl)-amino-cyclohexyl)-urea, hydrochloride] | 6.00 to 7.51
2 | CN(C(=O)CN1CCC(Nc2ccc(F)cc2Cl)CC1)c1ccc2c(c1)nc(CCc1ccc(C(=N)N)cc1)n2C [Example 33, N-{2-[2-(4-Amidinophenyl)-ethyl]-1-methyl-benzimidazol-5-yl}-N-methyl-2-[4-(2-chloro-4-fluorophenylamino)-piperid-1-yl]-acetamide, dihydrochloride] | 8.52 to 9.30
3 | CN(C(=O)CN1CCC(Nc2ccc(Cl)cc2)CC1)c1ccc2c(c1)nc(CCc1ccc(C(=N)N)cc1)n2C [Example 105, N-{2-[2-(4-Amidinophenyl)-ethyl]-1-methyl-benzimidazol-5-yl}-N-methyl-2-[4-(4-chlorophenylamino)-piperid-1-yl]-acetamide, dihydrochloride] | 8.52 to 9.30
4 | CN(C(=O)CN1CCC(Nc2ccc(Br)cc2Cl)CC1)c1ccc2c(c1)nc(CCc1ccc(C(=N)N)cc1)n2C [Example 62, N-{2-[2-(4-Amidinophenyl)-ethyl]-1-methyl-benzimidazol-5-yl}-N-methyl-2-[4-(2-chloro-4-bromoamino)-piperid-1-yl]-acetamide, dihydrochloride] | 8.52 to 9.30
5 | Cn1c(CCc2ccc(C(=N)N)cc2)nc2cc(N(Cc3cccc4ccccc34)C(=O)NC3(Cc4ccccc4)CCNCC3)ccc21 [Example 77, N-{2-[2-(4-Amidinophenyl)-ethyl]-1-methyl-benzimidazol-5-yl}-N-[naphth-1-ylmethyl]-N′-[4-(benzyl)-piperidin-4-yl)-urea, hydrochloride] | 7.52 to 8.40
6 | Cn1c(CCc2ccc(C(=N)N)cc2)nc2cc(N(Cc3cccc(N)c3)C(=O)CN3CCC(Nc4ccccn4)CC3)ccc21 [Example 55, N-{2-[2-(4-Amidinophenyl)-ethyl]-1-methyl-benzimidazol-5-yl}-N-[3-aminophenyl-methyl]-2-[4-(2-pyridylamino)-piperid-1-yl]-acetamide, dihydrochloride] | 7.52 to 8.40
7 | CN(C(=O)CN1CCC(N(Cc2ccccc2)C2CCCN2)CC1)c1ccc2c(c1)nc(CCc1ccc(C(=N)N)cc1)n2C (stereo not drawn) [Example 43, N-{2-[2-(4-Amidinophenyl)-ethyl]-1-methyl-benzimidazol-5-yl}-N-methyl-2-{4-[(N-benzyl)-2-pyrrolidylamino]-piperid-1-yl}-acetamide, dihydrochloride] | 7.52 to 8.40
8 | CN(C(=O)CN1CCC(Nc2ccccc2Cl)CC1)c1ccc2c(c1)nc(CCc1ccc(C(=N)N)cc1)n2C [Example 31, N-{2-[2-(4-Amidinophenyl)-ethyl]-1-methyl-benzimidazol-5-yl}-N-methyl-2-[4-(2-chlorophenylamino)-piperid-1-yl]-acetamide, dihydrochloride] | 8.52 to 9.30
9 | CN(C)CCCN(C)C(=O)N(Cc1cccc2ccccc12)c1ccc2c(c1)nc(CCc1ccc(C(=N)N)cc1)n2C [Example 78, N-{2-[2-(4-Amidinophenyl)-ethyl]-1-methyl-benzimidazol-5-yl}-N-[naphth-1-ylmethyl]-N′-methyl-N′-(3-dimethylamino-propyl)-urea, hydrochloride] | 6.00 to 7.51
10 | Cn1c(CCc2ccc(C(=N)N)cc2)nc2cc(N(Cc3ccncc3)C(=O)CN3CCC(Nc4ccccn4)CC3)ccc21 [Example 46, N-{2-[2-(4-Amidinophenyl)-ethyl]-1-methyl-benzimidazol-5-yl}-N-[4-pyridylmethyl]-2-[4-(2-pyridylamino)-piperid-1-yl]-acetamide, dihydrochloride] | 7.52 to 8.40
11 | CN(C(=O)CN1CCC(Nc2ccccc2)CC1)c1ccc2c(c1)nc(CCc1ccc(C(=N)N)cc1)n2C [Example 108, N-{2-[2-(4-Amidinophenyl)-ethyl]-1-methyl-benzimidazol-5-yl}-N-methyl-2-[4-(phenylamino)-piperid-1-yl]-acetamide, dihydrochloride] | 7.52 to 8.40
12 | CN(C(=O)CN1CCC(Nc2ccccc2C(=N)N)CC1)c1ccc2c(c1)nc(CCc1ccc(C(=N)N)cc1)n2C [Example 40, N-{2-[2-(4-Amidinophenyl)-ethyl]-1-methyl-benzimidazol-5-yl}-N-methyl-2-[4-(2-amidinophenylamino)-piperid-1-yl]-acetamide, dihydrochloride] | 6.00 to 7.51
13 | Cn1c(CCc2ccc(C(=N)N)cc2)nc2cc(NC(=O)N3CCC(Nc4ccccn4)CC3)ccc21 [Example 82, N-{2-[2-(4-Amidinophenyl)-ethyl]-1-methyl-benzimidazol-5-yl}-N′-[4-(2-pyridyl)-amino]-piperid-1-ine urea, hydrochloride] | 6.00 to 7.51
14 | CN(C(=O)CN1CCC(Nc2ccc(C(F)(F)F)cc2Br)CC1)c1ccc2c(c1)nc(CCc1ccc(C(=N)N)cc1)n2C [Example 67, N-{2-[2-(4-Amidinophenyl)-ethyl]-1-methyl-benzimidazol-5-yl}-N-methyl-2-[4-(2-bromo-4-trifluoromethylamino)-piperid-1-yl]-acetamide, dihydrochloride] | 7.52 to 8.40
15 | CC(C)c1ccc(NC2CCN(CC(=O)N(C)c3ccc4c(c3)nc(CCc3ccc(C(=N)N)cc3)n4C)CC2)c(Br)c1 [Example 68, N-{2-[2-(4-Amidinophenyl)-ethyl]-1-methyl-benzimidazol-5-yl}-N-methyl-2-[4-(2-bromo-4-isopropylamino)-piperid-1-yl]-acetamide, dihydrochloride] | 6.00 to 7.51

Further lines, results first:

Row | pIC50 | Compound
16 | 7.52 to 8.40 | COc1ccc(NC2CCN(CC(=O)N(Cc3cccc4ccccc34)c3ccc4c(c3)nc(CCc3ccc(C(=N)N)cc3)n4C)CC2)cc1 [Example 14, N-{2-[2-(4-Amidinophenyl)-ethyl]-1-methyl-benzimidazol-5-yl}-N-[naphth-1-ylmethyl]-2-[4-(4-methoxyphenylamino)-piperid-1-yl]-acetamide, dihydrochloride]
17 | 7.52 to 8.40 | Cn1c(CCc2ccc(C(=N)N)cc2)nc2cc(N(Cc3ccncc3)C(=O)CN3CCC(Nc4ccccc4)CC3)ccc21 [Example 45, N-{2-[2-(4-Amidinophenyl)-ethyl]-1-methyl-benzimidazol-5-yl}-N-[4-pyridylmethyl]-2-(4-phenylamino-piperid-1-yl)-acetamide, dihydrochloride]
18 | 7.52 to 8.40 | Cn1c(CCc2ccc(C(=N)N)cc2)nc2cc(N(Cc3cccc4ccccc34)C(=O)CN3CCC(Nc4ccc(OCc5ccccc5)cc4)CC3)ccc21 [Example 17, N-{2-[2-(4-Amidinophenyl)-ethyl]-1-methyl-benzimidazol-5-yl}-N-[naphth-1-ylmethyl]-2-[4-(4-benzyloxy-phenylamino)-piperid-1-yl]-acetamide, dihydrochloride]
19 | 7.52 to 8.40 | CN(C)c1ccc(NC2CCN(CC(=O)N(Cc3cccc4ccccc34)c3ccc4c(c3)nc(CCc3ccc(C(=N)N)cc3)n4C)CC2)cc1 [Example 13, N-{2-[2-(4-Amidinophenyl)-ethyl]-1-methyl-benzimidazol-5-yl}-N-[naphth-1-ylmethyl]-2-[4-(4-dimethylaminophenyl-amino)-piperid-1-yl]-acetamide, trihydrochloride]
20 | 7.52 to 8.40 | CCOC(=O)CCN(C)C1CCN(CC(=O)N(Cc2cccc3ccccc23)c2ccc3c(c2)nc(CCc2ccc(C(=N)N)cc2)n3C)CC1 [Example 21, N-{2-[2-(4-Amidinophenyl)-ethyl]-1-methyl-benzimidazol-5-yl}-N-[naphth-1-ylmethyl]-2-[4-(ethyl N-methyl-N-propionate)-piperid-1-yl]-acetamide, trihydrochloride]
21 | 7.52 to 8.40 | CN(c1ccccn1)C1CCN(CC(=O)N(Cc2cccc3ccccc23)c2ccc3c(c2)nc(CCc2ccc(C(=N)N)cc2)n3C)CC1 [Example 19, N-{2-[2-(4-Amidinophenyl)-ethyl]-1-methyl-benzimidazol-5-yl}-N-[naphth-1-ylmethyl]-2-[4-(2-pyridyl-N-methyl-amino)-piperid-1-yl]-acetamide, dihydrochloride]
22 | 7.52 to 8.40 | Cn1c(CCc2ccc(C(=N)N)cc2)nc2cc(N(Cc3cccc4ccccc34)C(=O)CN3CCC(Cc4ccccn4)CC3)ccc21 [Example 20, N-{2-[2-(4-Amidinophenyl)-ethyl]-1-methyl-benzimidazol-5-yl}-N-[naphth-1-ylmethyl]-2-[4-(2-pyridylmethyl)-piperid-1-yl]-acetamide, dihydrochloride]
23 | 8.52 to 9.30 | Cn1c(CCc2ccc(C(=N)N)cc2)nc2cc(N(Cc3cccc4ccccc34)C(=O)CN3CCC(Nc4ccccc4Cl)CC3)ccc21 [Example 12, N-{2-[2-(4-Amidinophenyl)-ethyl]-1-methyl-benzimidazol-5-yl}-N-[naphth-1-ylmethyl]-2-[4-(2-chlorophenylamino)-piperid-1-yl]-acetamide, dihydrochloride]
24 | 7.52 to 8.40 | Cn1c(CCc2ccc(C(=N)N)cc2)nc2cc(N(Cc3cccc4ccccc34)C(=O)CN3CCC(Cc4ccccc4)CC3)ccc21 [Example 9, N-{2-[2-(4-Amidinophenyl)-ethyl]-1-methyl-benzimidazol-5-yl}-N-[naphth-1-ylmethyl]-2-[4-(benzyl)-piperid-1-yl]-acetamide, dihydrochloride]
